System: Eimeria tenella
Experiment: In vivo anticoccidial efficacy evaluation in broilers challenge-inoculated with Eimeria tenella
Parameters: species or system Ross broilers
Method: An in vivo anticoccidial efficacy evaluation test was performed in an animal experiment facility in Gyeongsangnam-do, South Korea. One-day-old female Ross broilers were individually weighed and randomly divided into groups to use in an experiment. Matters and conditions for experimental design were described in Table 2.
A breeding farm was managed according to the Korean poultry breeding management guidelines. Cages and the breeding farm were cleaned and disinfected before starting the test. The temperature of […] and the humidity of 40 to 50% of the breeding farm were maintained, and it was continuously monitored.
For the feed, Korea Feed Al-choi product was used, and each material (salinomycin (Cheil Bio Cheilsalino-60 product), xanthone (Sigma Aldrich X600 product), and the mangosteen extract prepared in Example 1-2 above) was added to the feed, respectively, at a concentration described in Table 3 below to be self-mixed. Antibiotics and supplements were not used in general feed and mixed feed, and no anticoccidial agent other than each material was added. Broilers were fed ad libitum throughout the experiment period. After putting 20 1-day-age broilers in cages randomly placed for each of the control group or test group and breeding, general feed was fed for 7 days, and then the mixed feed prepared above was ingested by dividing by control group or test group.
The feed formulation administered to the control group (negative control group or positive control group) and test group and whether coccidiosis was induced by Eimeria tenella were described in Table 3 below. 20 1-day-old broilers were put in a cage randomly arranged for each test group, and after 7 days of feeding the general feed, the formulated feed as described in Table 3 was divided into each test group and ingested.
14-day-old broilers were orally inoculated with 10,000 oocysts (90% sporulated Eimeria tenella oocysts) per individual to induce coccidiosis.
The anticoccidial efficacy by test group designed in Example 1-3 above was shown as an anticoccidial index (ACI), and the anticoccidial index was calculated by Equation 2 below. The ACI score is out of 200 points, and the higher the ACI score, the more excellent the anticoccidial ability, and when it is 120 points or more to less than 140 points, it is determined that it is effective as an anticoccidial material, and when it is 140 points or more to less than 160 points, it is determined that it is excellent as an anticoccidial material, and when it is 160 points or more, it is determined that the anticoccidial effect is very excellent. (Luis Miguel De Pablos et al., Anticoccidial activity of maslinic acid against infection with Eimeria tenella in chickens, Parasitol Res, 2010)
Anticoccidial index (ACI)=(survival rate after challenge inoculation (%))+(daily weight gain compared to negative control group (RWG, %))−(lesion score×10)−(fecal oocyst excretion amount index) (Equation 2)
1) Survival rate: the number of dead individuals was recorded daily, and post mortem autopsy was performed to determine a cause of mortality, and the number of individuals who died due to causes other than coccidiosis was excluded. The survival rate (%) up to the 8th day after challenge inoculation was used for anticoccidial index calculation.
2) Daily weight gain: body weight was measured for each cage before challenge inoculation with a protozoan into an individual and at the 7th day after challenge inoculation, and the difference was divided by the number of days to calculate the daily weight gain (ADG, g/d). ‘Daily weight gain compared to the negative control group (RWG, %)’which was calculated by dividing the daily weight gain (ADG, average daily gain; g/d) of each experimental group by the weight gain (ADG, g/d) of the non-infected negative control group and multiplying by 100 was used for anticoccidial index calculation. […]

For `O=c1c2ccccc2oc2ccccc12` [Xanthone, xanthone], the “Intermediate body weight (14-day-old, before challenge inoculation)” value (formulated feed 62.5 ppm from day 7, female Ross broilers) was 470.9, the Appendix lesion score (formulated feed 62.5 ppm, 8th day after challenge inoculation, scale of 0-4) was 2.4 and the “End body weight (21-day-old, on the 7th day of challenge inoculation)” value (formulated feed 62.5 ppm, 10,000 E. tenella oocysts oral at 14 days) was 887.0. The “Day 14~Day 21 ADG (daily weight gain)” value (formulated feed 62.5 ppm, E. tenella infected broilers) was 56.42 g/day, the “Anticoccidial index (ACI)” value (formulated feed 62.5 ppm, Equation 2, out of 200 points) was 122 and the Oocyst excretion amount/gram (formulated feed 62.5 ppm, feces of 6~8th day of challenge inoculation, McMaster chamber) was 1.80E+08 /gram. The “RWG (daily weight gain compared to the negative control group)” value (formulated feed 62.5 ppm, relative to non-infected negative control group) was 85%.
